Patent US7339065B2, “Design and synthesis of optimized ligands for PPAR” (Bethesda Pharmaceuticals, Inc., priority 2003, dated 2008)

How the values were obtained:
[1] = system: human psoriasis skin engrafted onto severe combined immunodeficient (SCID) mice; experiment: SCID mouse, human skin transplant model of psoriasis; type: in vivo
From the text: Background: Human psoriasis skin engrafted onto severe combined immunodeficient (SCID) mice maintains its abnormal histologic characteristics in the absence of any treatment. Treatment of this SCID mouse, human skin transplant model of psoriasis with anti-psoriatic drugs will improve the histologic phenotype of the transplanted psoriatic skin. Thus, the SCID mouse with transplanted human psoriatic skin represents a useful model of psoriasis and can be used to test the therapeutic effects of antipsoriatic drugs (as described in the following references: 1) Nickoloff B J, Kunkel S L, Burdick […]. Severe combined immunodeficiency mouse and human psoriatic skin chimeras. Validation of a new animal model. Am J Pathol. 1995; 146:580-588. […] Archives of Dermatology 136:609-616, 2000). Methods: Keratome pieces of lesional psoriasis skin were transplanted onto immunodeficient mice (such as CB17 strain) as previously described (Nickoloff B J, Kunkel S L, Burdick […]. Am J Pathol. 1995; 146:580-588. Ellis […], Fisher […], Benson S C, Kurtz T W. Archives of Dermatology. 136:609-616, 2000). The transplanted tissue was allowed to heal for four weeks after which six animals were treated once daily for 4-8 weeks by topical application of BP107 to the psoriatic skin in concentrations sufficient to exert an antipsoriatic effect (concentrations ranging from 0.1 micromolar to 10 millimolar in appropriate amounts of vehicle such as DMSO, propylene glycol, or other vehicles familiar to those skilled in the art). At the end of the treatment period, the animals were sacrificed, tissue pieces were fixed in 10% buffered formalin, embedded in paraffin, sectioned, stained with hematoxylin and eosin, and evaluated histologically using techniques familiar to those skilled in the art. Animals topically treated with the corresponding vehicle without any BP107 were used as controls.

PPARgamma = molecular target: T1, PPARgamma (Homo sapiens, UniProt P37231); experiment: cell based transactivation assay, PPARgamma; conditions: activation, transactivation assay in vitro; read-out: EC50 for PPAR isoforms: PPARgamma
T1 construct: uses chimeric receptors where the PPAR LBD is fused to the DBD of the yeast transcription factor GAL4; expressed in transfected cells
T1 sequence (P37231 238-503 limits assumed): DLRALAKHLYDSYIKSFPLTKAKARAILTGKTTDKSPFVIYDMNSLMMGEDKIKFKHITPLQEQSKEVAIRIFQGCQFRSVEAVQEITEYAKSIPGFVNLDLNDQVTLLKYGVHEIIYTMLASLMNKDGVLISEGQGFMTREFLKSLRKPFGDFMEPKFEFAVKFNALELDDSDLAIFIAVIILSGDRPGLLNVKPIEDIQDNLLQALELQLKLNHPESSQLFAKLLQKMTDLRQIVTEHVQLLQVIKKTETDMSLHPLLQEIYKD
Procedure: (§1) The binding of agonist ligands to the receptor results in changes in the expression level of mRNAs encoded by PPAR target genes. This process, “transactivation”, is determined by cell-based assays which monitor this functional activity. Transactivation assays use cells that have been transfected with a vector expressing the receptor as well as a second vector containing a DNA direct repeat (DR-1) response element and a reporter gene, which encodes an enzyme such as chloramphenicol acetyltransferase, secreted placental alkaline phosphatase, or firefly luciferase. […]
(§2) The binding of agonist ligands to a nuclear receptor results in transactivation, i.e., changes in the expression level of mRNAs encoded by PPAR target genes. […] Activation of the receptor by agonist ligands leads to induction of reporter enzyme expression, which can be conveniently assayed using standard colorimetric or photometric plate readers. […]

PPARalpha = molecular target: T2, PPARalpha (Homo sapiens, UniProt Q07869); experiment: cell based transactivation assay, PPARalpha; conditions: activation, transactivation assay in vitro; read-out: EC50 for PPAR isoforms: PPARalpha
T2 construct: uses chimeric receptors where the PPAR LBD is fused to the DBD of the yeast transcription factor GAL4; expressed in transfected cells
T2 sequence (Q07869 239-466 limits assumed): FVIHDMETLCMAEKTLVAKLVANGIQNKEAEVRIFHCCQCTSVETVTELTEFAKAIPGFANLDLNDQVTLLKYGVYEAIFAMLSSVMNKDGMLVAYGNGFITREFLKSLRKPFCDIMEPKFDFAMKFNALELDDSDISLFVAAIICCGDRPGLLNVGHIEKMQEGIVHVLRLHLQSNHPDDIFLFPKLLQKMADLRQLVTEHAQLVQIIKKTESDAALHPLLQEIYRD
Procedure: as §1, §2

PPARdelta = molecular target: T3, PPARdelta (Homo sapiens, UniProt Q03181); experiment: cell based transactivation assay, PPARdelta; conditions: activation, transactivation assay in vitro; read-out: EC50 for PPAR isoforms: PPARdelta
T3 construct: uses chimeric receptors where the PPAR LBD is fused to the DBD of the yeast transcription factor GAL4; expressed in transfected cells
T3 sequence (Q03181 211-439 limits assumed): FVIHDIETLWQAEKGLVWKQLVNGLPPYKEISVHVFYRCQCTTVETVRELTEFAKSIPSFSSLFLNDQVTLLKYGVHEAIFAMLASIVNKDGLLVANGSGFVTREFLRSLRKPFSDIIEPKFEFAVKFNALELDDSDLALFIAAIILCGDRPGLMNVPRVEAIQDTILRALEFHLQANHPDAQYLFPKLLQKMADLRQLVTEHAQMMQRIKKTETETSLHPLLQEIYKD
Procedure: as §1, §2

[2] = topical, once daily for 4-8 weeks, histology

EC50 (PPARgamma): < 1 nM
EC50 (PPARalpha): > 10 µM
EC50 (PPARdelta): > 10 µM
Compound: CN(CCOc1ccc(CC2SC(=O)NC2=O)cc1)C(=O)CCCCC1C2CC3CC(C2)CC1C3 (stereo not drawn) [BP 107, 5-Adamantan-2-yl-pentanoic acid {2-[4-(2,4-dioxo-thiazolidin-5-ylmethyl)-phenoxy]-ethyl}-methyl-amide]
antipsoriatic effect compared to animals treated with troglitazone or rosiglitazone ([1]; topical BP107 vs weaker PPAR gamma activators): much better
granular layer [1, 2]: present in much of the epidermis
inflammatory response [1, 2]: reduced
pattern of epidermal differentiation [1, 2]: more normal pattern
overall skin thickness ([1]; topical, once daily for 4-8 weeks, histology, vs vehicle controls): reduced
anti-psoriatic effect compared to control animals ([1]; topical, once daily for 4-8 weeks, controls treated with vehicle): clearly evident
